{
  "source": "paper PMC9218685",
  "about": "“Legume Plant Peptides as Sources of Novel Antimicrobial Molecules Against Human Pathogens” (Frontiers in Molecular Biosciences, 2022)",
  "assay_type_in_all_cases": "cell-based",
  "key": {"[1]": {"tested_on": "Escherichia coli (ATCC 8739)", "conditions": "for MBC Escherichia coli: ATCC 8739, 3 h", "excerpt": "(§1) The following pathogenic bacterial strains were used: The Gram-positive Enterococcus faecalis (ATCC 29212), Staphylococcus aureus (HNCMO112011), Listeria monocytogenes (ATCC 19111) and the Gram-negative Pseudomonas aeruginosa (ATCC 27853), Escherichia coli (ATCC 8739), Salmonella enterica (ATCC 13076), Klebsiella pneumoniae (NCTC 13440), Acinetobacter baumannii (ATCC 17978) obtained from the ATCC (United States) and NCTC (National Collection of Type Cultures–England). For the antifungal experiment the Candida albicans W01 strain ([Ördögh et al., 2014]) was used. Antimicrobial activities of peptides against ∼10^7 log phase bacteria were tested in Potassium-Phosphate Buffer (PPB, pH 7.4) as described by [Jenei et al. (2020)] while anti-Candida assays were done according to [Szerencsés et al. (2021)]. The two-fold dilution series of peptides ranged from 25 μM to 0.125 μM, while that of the antibiotics ampicillin (Merck) and miconazole (Duchefa Biochemie) from […] to 0.1 μM. The lowest concentration of the antimicrobial agents, which completely eliminated viable bacteria or C. albicans were considered as the minimal bactericidal concentration (MBC) and minimal fungicidal concentration (MFC).\n(§2) The minimal bactericidal concentrations (MBCs) were determined after 3 h of treatment of ∼10^7 log phase bacteria with 2-fold serial dilution of peptides from 25 µM to 0.8 µM. Only 25 of the 50 cationic M. truncatula peptides had activity at ≤25 µM (Supplementary Table S1). […] Three peptides were only active against two bacterial strains; NCR649 against L. monocytogenes and A. baumannii, NCR281 against L. monocytogenes and P. aeruginosa and NCR350 against A. baumannii and P. aeruginosa. […] None of the anionic NCR peptides affected the survival of the tested bacterial strains."}, "[2]": {"tested_on": "E. coli, S. enteritidis, P. aeruginosa, L. monocytogenes, S. aureus, E. faecalis, K. pneumoniae and A. baumannii", "assay": "Antimicrobial activity assay, spectrum over the eight tested pathogenic bacteria", "conditions": "3 h treatment of ~10^7 log phase bacteria, peptides 25 to 0.8 µM; active = MBC ≤25 µM", "excerpt": "as §1\nWe investigated the antimicrobial activity of 78 NCR peptides from M. truncatula and 12 NCRs from other IRLC legumes as well as their shorter derivatives against E. coli, S. enteritidis, P. aeruginosa, L. monocytogenes, S. aureus, E. faecalis, K. pneumoniae and A. baumannii (Supplementary Table S1). In the selection of the M. truncatula peptides, we considered their symbiotic expression levels but also their physicochemical properties. The antimicrobial activity of NCRs has so far been attributed to cationic peptides, with the exception of one anionic peptide. To investigate whether other anionic NCRs are antimicrobial, in addition to the cationic peptides, neutral and anionic NCRs were also included covering a broad range of peptides with different net charges (NC: from 7.8 to −10.2) and isoelectric points (pI: from 10.69 to 2.95). 50 peptides had positive net charge and pI > 7.0, while 28 peptides had negative net charge and pI < 7.0 (Supplementary Table S1A). Of the other legumes, only cationic NCR peptides were studied (Supplementary Table S1B).\nas §2"}, "[3]": {"tested_on": "Pseudomonas aeruginosa (ATCC 27853)", "conditions": "for MBC Pseudomonas aeruginosa: ATCC 27853, 3 h", "excerpt": "as §1, §2"}, "[4]": {"tested_on": "Acinetobacter baumannii (ATCC 17978)", "assay": "microbe, parasite or virus in culture", "excerpt": "as §1, §2"}, "[5]": {"conditions": "3 h, ~10^7 log phase bacteria, peptides ≤25 µM"}},
  "note": "Ends that are not written are not given here. Peptide text beside a SMILES is read from it.",
  "data": [
    {"molecule": "CC(C)[C@H](NC(=O)[C@H](CS)NC(=O)[C@@H](N)CCCCN)C(=O)N[C@@H](Cc1ccc(O)cc1)C(=O)N[C@H](C(=O)N1CCC[C@H]1C(=O)N[C@@H](CCCCN)C(=O)N[C@@H](CCCNC(=N)N)C(N)=O)[C@@H](C)O", "note": "[GoNCR308 (23-30)] (H-KCVYTPKR-NH2)", "values": [
      {"measurement": "MBC Escherichia coli", "setting": "[1]", "value": 50, "unit": "µM"}
    ]},
    {"molecule": "CC[C@H](C)[C@H](NC(=O)[C@H](CCCCN)NC(=O)[C@H](CC(=O)O)NC(=O)[C@@H]1CCCN1C(=O)[C@@H](N)Cc1ccccc1)C(=O)N[C@@H](Cc1ccccc1)C(=O)N[C@@H](Cc1ccccc1)C(=O)NCC(=O)N[C@@H](CC(=O)O)C(=O)N[C@@H](CS)C(=O)N[C@@H](CCC(N)=O)C(=O)N[C@H](C(=O)N[C@@H](CC(=O)O)C(=O)N[C@@H](CCCCN)C(=O)N[C@@H](CC(=O)O)C(=O)N[C@@H](CS)C(=O)N[C@@H](CCCCN)C(=O)N1CCC[C@H]1C(=O)N[C@@H](CCCCN)C(=O)N[C@@H](CCCNC(=N)N)C(=O)NCC(=O)N[C@H](C(=O)N[C@@H](CC(N)=O)C(=O)N[C@@H](Cc1ccccc1)C(=O)N[C@@H](CCCNC(=N)N)C(=O)N[C@@H](CS)C(=O)N[C@@H](CCCNC(=N)N)C(=O)N[C@@H](CCCCN)C(=O)NCC(=O)N[C@@H](CCCCN)C(=O)N[C@@H](CS)C(=O)N[C@@H](Cc1ccccc1)C(=O)N1CCC[C@H]1C(=O)N[C@H](C(=O)N[C@@H](CCCNC(=N)N)C(=O)O)C(C)C)C(C)C)[C@@H](C)O", "note": "[MsNCR463] (H-FPDKIFFGDCQTDKDCKPKRGVNFRCRKGKCFPVR-OH; N-terminus assumed)", "values": [
      {"measurement": "Antibacterial spectrum over the eight tested bacterial strains", "setting": "[2]", "value": "only effective against P. aeruginosa"},
      {"measurement": "Effective concentration (MBC) against P. aeruginosa", "setting": "[3]; 3 h, ~10^7 log phase bacteria", "value": 25, "unit": "µM"}
    ]},
    {"molecule": "CC[C@H](C)[C@H](NC(=O)[C@@H]1CCCN1C(=O)[C@@H]1CCCN1C(=O)[C@@H](NC(=O)[C@H](CS)NC(=O)[C@@H](NC(=O)CNC(=O)[C@H](CCCCN)NC(=O)[C@H](CCCNC(=N)N)NC(=O)[C@H](CS)NC(=O)[C@H](CCCNC(=N)N)NC(=O)[C@H](Cc1ccccc1)NC(=O)[C@H](CC(N)=O)NC(=O)[C@H](C)NC(=O)CNC(=O)[C@H](Cc1ccc(O)cc1)NC(=O)[C@H](CC(C)C)NC(=O)[C@H](CCCCN)NC(=O)[C@@H]1CCCN1C(=O)[C@H](CS)NC(=O)[C@H](CC(=O)O)NC(=O)[C@H](CCCCN)NC(=O)[C@H](CC(=O)O)NC(=O)[C@H](CCCNC(=N)N)NC(=O)[C@H](CCCCN)NC(=O)[C@H](CS)NC(=O)[C@H](CO)NC(=O)[C@H](CO)NC(=O)[C@@H](NC(=O)[C@H](Cc1ccccc1)NC(=O)[C@@H](NC(=O)CNC(=O)[C@H](CC(C)C)NC(=O)[C@@H](N)Cc1ccccc1)[C@@H](C)O)[C@@H](C)CC)[C@@H](C)O)C(C)C)C(=O)O", "note": "[NCR035] (H-FLGTFISSCKRDKDCPKLYGANFRCRKGTCVPPI-OH; N-terminus assumed)", "values": [
      {"measurement": "Activity against E. coli", "setting": "[1]; [5]", "value": "only effective"},
      {"measurement": "MBC Escherichia coli", "setting": "[1]", "value": 12.5, "unit": "µM"}
    ]},
    {"molecule": "CC[C@H](C)[C@H](NC(=O)[C@H](Cc1ccc(O)cc1)NC(=O)[C@H](CC(N)=O)NC(=O)[C@H](CCCCN)NC(=O)[C@@H](NC(=O)[C@H](CO)NC(=O)[C@@H]1CCCN1C(=O)[C@H](CS)NC(=O)[C@H](CC(=O)O)NC(=O)[C@H](CCCCN)NC(=O)[C@H](CC(=O)O)NC(=O)[C@@H](NC(=O)[C@@H](NC(=O)[C@H](CS)NC(=O)[C@@H](NC(=O)[C@H](CCCNC(=N)N)NC(=O)[C@@H](NC(=O)[C@@H](NC(=O)[C@@H]1CCCN1C(=O)[C@H](CC(C)C)NC(=O)[C@H](Cc1ccc(O)cc1)NC(=O)[C@@H](N)[C@@H](C)O)[C@@H](C)O)[C@@H](C)O)[C@@H](C)CC)[C@@H](C)CC)[C@@H](C)O)C(C)C)C(=O)NCC(=O)N[C@@H](CCCNC(=N)N)C(=O)N[C@@H](CS)C(=O)N[C@@H](CCCNC(=N)N)C(=O)N[C@@H](CCCCN)C(=O)NCC(=O)N[C@@H](Cc1ccc(O)cc1)C(=O)N[C@@H](CS)C(=O)N[C@@H](CCC(N)=O)C(=O)N[C@@H](C)C(=O)N[C@@H](CO)C(=O)N[C@@H](CCCCN)C(=O)N[C@@H](CC(C)C)C(=O)N[C@@H](CCCNC(=N)N)C(=O)O", "note": "[NCR042] (H-TYLPTTRICITDKDCPSVKNYIGRCRKGYCQASKLR-OH; N-terminus assumed)", "values": [
      {"measurement": "MBC Pseudomonas aeruginosa", "setting": "[3]", "value": 25, "unit": "µM"}
    ]},
    {"molecule": "CC[C@H](C)[C@H](NC(=O)[C@H](CCSC)NC(=O)[C@H](CCCNC(=N)N)NC(=O)[C@H](CCCNC(=N)N)NC(=O)CNC(=O)[C@@H]1CCCN1C(=O)[C@H](CC(C)C)NC(=O)[C@H](CS)NC(=O)[C@H](Cc1ccc(O)cc1)NC(=O)[C@H](CCCCN)NC(=O)[C@@H](NC(=O)[C@@H]1CCCN1C(=O)[C@H](CO)NC(=O)[C@H](CS)NC(=O)[C@H](CC(=O)O)NC(=O)[C@H](CO)NC(=O)[C@@H](NC(=O)[C@H](CCCCN)NC(=O)[C@@H](NC(=O)[C@H](CS)NC(=O)[C@H](CCC(=O)O)NC(=O)[C@H](CC(=O)O)NC(=O)[C@@H](N)CO)C(C)C)C(C)C)[C@@H](C)O)C(=O)N[C@@H](CS)C(=O)N[C@@H](CO)C(=O)N[C@@H](CCCCN)C(=O)NCC(=O)N[C@@H](CCCCN)C(=O)N[C@@H](CS)C(=O)N[C@@H](CCCCN)C(=O)N[C@@H](CS)C(=O)N[C@@H](CC(C)C)C(=O)N[C@@H](CCCNC(=N)N)C(=O)N[C@@H](CC(N)=O)C(=O)N[C@@H](CCSC)C(=O)N[C@@H](Cc1ccccc1)C(=O)N[C@H](C(=O)N1CCC[C@H]1C(=O)N[C@H](C(=O)N1CCC[C@H]1C(=O)O)[C@@H](C)CC)[C@@H](C)CC", "note": "[NCR135] (H-SDECVKVSDCSPTKYCLPGRRMICSKGKCKCLRNMFIPIP-OH; N-terminus assumed)", "values": [
      {"measurement": "Antibacterial spectrum over the eight tested bacterial strains", "setting": "[2]", "value": "against three strains"}
    ]},
    {"molecule": "CC[C@H](C)[C@H](NC(=O)[C@H](CC(N)=O)NC(=O)[C@H](Cc1ccc(O)cc1)NC(=O)[C@H](CCC(N)=O)NC(=O)[C@H](CO)NC(=O)[C@@H](NC(=O)[C@H](CCCCN)NC(=O)[C@@H]1CCCN1C(=O)[C@H](CS)NC(=O)[C@H](CC(=O)O)NC(=O)[C@H](CCCCN)NC(=O)[C@H](CC(=O)O)NC(=O)[C@@H](NC(=O)[C@@H](NC(=O)[C@H](CS)NC(=O)[C@@H]1CCCN1C(=O)CNC(=O)[C@H](CO)NC(=O)[C@H](CC(N)=O)NC(=O)[C@@H](NC(=O)[C@H](Cc1ccc(O)cc1)NC(=O)[C@@H]1CCCN1C(=O)[C@@H](NC(=O)[C@H](CO)NC(=O)[C@H](CC(=O)O)NC(=O)[C@H](Cc1ccc(O)cc1)NC(=O)[C@@H](NC(=O)[C@@H](N)CO)C(C)C)[C@@H](C)CC)C(C)C)C(C)C)[C@@H](C)O)C(C)C)C(=O)N[C@@H](CCCNC(=N)N)C(=O)N[C@@H](CS)C(=O)N[C@@H](CCCNC(=N)N)C(=O)N[C@@H](CCCCN)C(=O)NCC(=O)N[C@@H](CCC(N)=O)C(=O)N[C@@H](CS)C(=O)N[C@@H](C)C(=O)N[C@@H](CCCNC(=N)N)C(=O)N[C@H](C(=O)N[C@@H](CCCNC(=N)N)C(=O)N[C@H](C(=O)O)C(C)C)[C@@H](C)CC", "note": "[NCR361] (H-SVYDSIPYVNSGPCVTDKDCPKVSQYNIRCRKGQCARIRV-OH; N-terminus assumed)", "values": [
      {"measurement": "MBC Pseudomonas aeruginosa", "setting": "[3]", "value": 25, "unit": "µM"}
    ]},
    {"molecule": "AYYECSNDSACQATTKCVLPRVPRCIKYKCLCGNSNGSGNRWSTRPNRIQKGSTESNYF-OH (cysteines drawn unpaired) [NCR384]", "values": [
      {"measurement": "Antibacterial spectrum over the eight tested bacterial strains", "setting": "[2]", "value": "able to kill all tested bacteria except E. faecalis and K. pneumoniae"}
    ]},
    {"molecule": "KCYQDSDCPKDMCSFLFKPKCIFTRYFPIYLGGICGCDRKTCP-OH (cysteines drawn unpaired) [NCR645]", "values": [
      {"measurement": "Antibacterial spectrum over the eight tested bacterial strains", "setting": "[2]", "value": "kill all bacteria except E. faecalis"}
    ]},
    {"molecule": "MKNGCKHTGHCPRKMCGAKTTKCRNNKCQCV [NCR192]", "values": [
      {"measurement": "Antibacterial spectrum over the eight tested bacterial strains", "setting": "[2]", "value": "all active, with the exception of NCR192"}
    ]},
    {"molecule": "VYDSKYFQIASPCVNDKDCPQFKNNNVRCRRGFCVNSGGATQKCLGCPSLK-OH (cysteines drawn unpaired) [NCR350]", "values": [
      {"measurement": "Activity against A. baumannii", "setting": "[4]; [5]", "value": "active"},
      {"measurement": "MBC Acinetobacter baumannii", "setting": "[4]; ATCC 17978, 3 h", "value": 12.5, "unit": "µM"},
      {"measurement": "Activity against P. aeruginosa", "setting": "[3]; [5]", "value": "active"},
      {"measurement": "MBC Pseudomonas aeruginosa", "setting": "[3]", "value": 25, "unit": "µM"}
    ]}
  ]
}
